Measurements taken from patent publication US20080188563A1, “BLOOD FLUIDITY IMPROVING AGENT” (KAO CORPORATION, priority 2002, published 2008).

Tests used:
[1] = tested on: stroke-prone spontaneously hypertensive rats (SHRSP/Izm, male); experiment: Evaluation of blood fluidity: whole blood transit time through microchannel array (MC-FAN) after 28 days oral administration; assay type: in vivo, rat; conditions: 50 mg/Kg/day oral; for Transit time: 7 μm microchannels, 20 cm water column
Procedure: Tests were started using stroke-prone spontaneously hypertensive rats (SHRSP/Izm, male) 6 weeks old after acclimating the rats 1 week or longer. The rats were all fed under the conditions of 20 to 26° C. temperature, 40 to 70% humidity and 12 hr. lighting time (from 6 a.m. to 6 p.m.).
The rats were administered with samples of the example of the present invention and samples of the comparative example once a day for continuous 28 days from a day when the rats reached 8 weeks of age. For administration, samples were orally administered by forced administration using a disposable polypropylene syringe attached with a metallic oral sonde. For the example, each sample contained a chlorogenic acid (supplied by Sigma Chemical Co., Ltd.) of 50 mg/Kg (body weight)/day, while the comparative example used the equal dose of injection grade water (supplied by Otsuka Pharmaceutical Co., Ltd., Tokyo, Japan) as samples. The preferred example also used the injection grade water as a medium for samples.
For feeds, the rats had been fed freely with a solid feed (CRF-1 supplied by Oriental Yeast Co., Ltd., Tokyo, Japan) for a period from the arrival to grouping of rats and with another solid feed (SP (a feed containing 0.4% common salt) supplied by the same manufacturer as above) for a period succeeding to the grouping. For drinking water, tap water was used in the period from the receipt to grouping of rats and 1% brine in the period after the grouping, respectively, for free uptake.
After administering rats with a specified sample for 28 continuous days, blood was sampled from each rat using a VENOJECT II vacuum blood collection tube of 7 mL size (available from Terumo Corporation, Tokyo, Japan) preinfused with 350 μL heparin as an anticoagulant (equivalent to 5% of whole blood). Upon sampling, the blood was agitated quickly to obtain blood samples for measurement. For blood measurement, a cellular microrheological measurement system was used (MC-FAN available from Hitachi Haramachi Electronics Co., Ltd., Ibaragi, Japan). The system incorporates an array of microchannels as a model of blood capillaries to measure the flowing characteristics of blood cells under constant differential pressure. As the model of blood capillaries, a silicon monocrystal basal plate having microchannels of 7 μm in width was used.
First, the time was measured for a 100 μL physiological saline solution to pass through the blood capillary model under differential pressure of 20 cm water column (the measured value to be used later for correction). Then the time was measured (in sec.) for a 100 μL each blood sample to pass through the blood capillary model under the same conditions. The time was measured every 10 μL fraction of sample flow. Each blood sample was microscopically observed as it flowed through the blood capillary model.

[2] = tested on: stroke-prone spontaneously hypertensive rats (SHRSP/Izm, male); experiment: Evaluation of effects of improving cerebrovascular diseases: development of cerebral apoplexy, histopathological examination; assay type: in vivo, rat; conditions: 50 mg/Kg/day oral, 49 days
Procedure: Tests were started using stroke-prone spontaneously hypertensive rats (SHRSP/Izm, male) 6 weeks old after acclimating the rats I week or longer. The rats were all fed under the conditions of 20 to 26° C. temperature, 40 to 70% humidity and 12 hr. lighting time (from 6 a.m. to 6 p.m.). Rat was administered with samples of the preferred example of the present invention and samples of the comparative example once a day for continuous 49 days from a day when the rats reached 8 weeks of age. For administration, samples were orally administered by forced administration using a disposable polypropylene syringe attached with a metallic oral sonde. For the preferred example, each sample comprised a chlorogenic acid (supplied by Sigma Chemical Co., Ltd.) of 50 mg/Kg (body weight)/day, while the comparative example used the equal dose of injection grade water (supplied by Otsuka Pharmaceutical Co., Ltd., Tokyo, Japan) as samples. The preferred example also used the injection grade water as a medium for samples. For feeds, the rats were fed freely with a solid feed (CRF-1 supplied by Oriental Yeast Co., Ltd., Tokyo, Japan) for a period from the arrival to grouping of rats and with another solid feed (SP (a feed containing 0.4% common salt) supplied by the same manufacturer as above) for a period succeeding to the grouping. […]

O=C(/C=C/c1ccc(O)c(O)c1)O[C@@H]1C[C@](O)(C(=O)O)C[C@@H](O)[C@H]1O [Preferred example, chlorogenic acid]
Transit times versus comparative example (injection grade water), in words [1]: shorter transit times | Transit time ([1]; blood volume passed 10 μL): 4.87 s | Transit time ([1]; blood volume passed 20 μL): 9.67 s | Transit time ([1]; blood volume passed 30 μL): 14.31 s | Transit time ([1]; blood volume passed 40 μL): 19.34 s | Transit time ([1]; blood volume passed 50 μL): 24.59 s | Transit time ([1]; blood volume passed 60 μL): 30.03 s | Transit time ([1]; blood volume passed 70 μL): 35.90 s | Transit time ([1]; blood volume passed 80 μL): 41.65 s | Transit time ([1]; blood volume passed 90 μL): 47.58 s | Transit time ([1]; blood volume passed 100 μL): 53.38 s | Development of cerebral apoplexy versus comparative example (injection grade water), in words [2]: definitely suppressed development of cerebral apoplexy | Cerebral apoplexy developed (number of rats) ([2]; of 10 rats used): 3
